Source: US20230372272A1, “USE OF CYSTINE AND DERIVATIVES THEREOF AS ANTI-THROMBOTIC AND THROMBOLYTIC AGENTS” (Georgia Tech Research Corporation, priority 2020, published 2023)

Columns and labels:
[1] = system: VWF- and platelet-rich white thrombi; assay: Lysis of platelet-rich white thrombi in collagen-coated stenotic capillary tube under arterial shear (perfusion of lytic agents); type: cell-based, Porcine; details: 0.02 mg/ml, 60 min perfusion
Protocol: Collagen Coating: The stenotic glass test sections (inner diameter=1.5 mm) described herein were made by the Chemistry and Biochemistry Glass Shop at Georgia Institute of Technology. The % stenosis by diameter reduction ranged from 60% to 80%. Fibrillar equine collagen (type I; Chrono-Log Corporation, Havertown, PA) was diluted 9:1 in NaCl (Sigma-Aldrich, St. Louis, MO) and incubated in the test section at the stenosis for 24 h in a warm, moist environment (Para, A., Bark, D., Lin, A. & Ku, D. Rapid platelet accumulation leading to thrombotic occlusion. Ann Biomed Eng 39, 1961-1971, 2011; Para, A. N. & Ku, D. N. A low-volume, single pass in-vitro system of high shear thrombosis in a stenosis. Thromb Res 131, 418-424, 2013).
(§1) Blood Collection: Porcine blood was collected at a local abattoir immediately following slaughter into 3.5 U/mL heparin (Thermo Fisher Scientific, Waltham, MA) or 3.2% sodium citrate (Sigma-Aldrich, St. Louis, MO). Whole blood was gently agitated using an Orbit LS shaker (Laboratory Supply Network, Atkinson, NH) until perfusion and used in experiments as soon as possible the same day as collection.
Syringe Perfusion: Lightly heparinized whole blood was perfused through the stenotic test section using a syringe pump. The flow rate was set so that the initial wall shear rate in the stenosis was 3,500 s^−1. A pressure transducer was connected in-line upstream of the stenosis (FIG. 2A). A dissecting microscope with a camera (PCO-Tech Incorporated, Romulus, MI) was used to capture images in real-time during perfusion. Blood perfusion continued until the upstream pressure increased by 30 mmHg (equivalent to an arterial pressure head in vivo) as a result of platelet thrombus formation in the stenotic section. Perfusion with a syringe pump (constant flow rate over constant pressure head) ensured that the thrombi were never fully occlusive, allowing subsequent perfusion for the induction of lysis.
Pharmacologic Agents: Recombinant human tPA (Sigma-Aldrich, St. Louis, MO), recombinant human ADAMTS-13 (MyBiosource, San Diego, CA), abciximab (ReoPro was kindly provided by Dr. Kevin Maher at Emory/CHOA), NAC (Thermo Fisher Scientific, Waltham, MA), and DiNAC (Cayman Chemical, Ann Arbor, Ml) or control (PBS) treatments were perfused for an hour at a flow rate of 1 ml/min. Agent solutions were made by dissolution or dilution in PBS. The in vitro flow system setup and image acquisition are shown in FIG. 2, and the concentrations of each agent are detailed in Table 2.
Real-time image capture (5 frames per second) of the stenosis continued throughout treatment perfusion.
Data Analysis: The thrombi surface area (which was colored green) was calculated using manual pixel counting in the open-source GNU Image Manipulation Program (GIMP, Version 2.10.8, 1995-2018). Surface area reduction was calculated by % pixel reduction versus the occlusion image. Analysis of variance (ANOVA) was used to test for statistical differences between groups, with the significance set at p<0.05.
In this example, a stenotic capillary tube model, which potentiates VWF- and platelet-rich white thrombi in an arterial setting on a collagen-coated stenosis was used (Para, A., Bark, D., Lin, A. & Ku, D. Rapid platelet accumulation leading to thrombotic occlusion. Ann Biomed Eng 39, 1961-1971, 2011; Ku, D. N. & Flannery, C. J. Development of a flow-through system to create occluding thrombus. Biorheology 44, 273-284, 2007; Para, A. N. & Ku, D. N. A low-volume, single pass in-vitro system of high shear thrombosis in a stenosis. Thromb Res 131, 418-424, 2013) to test lysis of 90% occlusive white thrombi (FIG. 2) and perfused low (2 mM) and high (20 mM) concentrations of NAC and DiNAC solutions. As illustrated in FIG. 2. DiNAC, but not NAC, achieved thrombolysis over 60 minutes of perfusion (FIG. 3A-3D). 2 mM and 20 mM DiNAC lysed most of the thrombi (>95%) within 14 min and 1.5 min, respectively (FIG. 3A-3B).

[2] = system: fibrin clots from recalcified citrated whole blood; assay: Red clot lysis under stagnant conditions, whole blood clots; type: cell-based, Porcine
Description: as §1
(§2) Red clot formation and lysis: Platelet rich plasma (PRP) was made by separating citrated whole blood via gravity over a 2 h period and collecting the supernatant. Separation via gravity was employed instead of centrifugation to avoid platelet damage and activation. Citrated whole blood or PRP was then recalcified with CaCl2 to a final [Ca^2+] of 10 mM (Griffin, M. T., Kim, D. & Ku, D. N. Shear-induced platelet aggregation: 3D-grayscale microfluidics for repeatable and localized occlusive thrombosis. Biomicrofluidics 13, 2019), and 200 μl was transferred into 500 μal centrifuge tubes and allowed to clot and retract for 30 min. The clot was then incubated with 100 μl of either agent or control solution. The treatment solution was exchanged by removing the top 100 μl and replacement with fresh solution at 3, 6, 12, 24, and 48 h of incubation. The weight of the tube was measured immediately post-clot formation and at each timepoint after removal of old solution and prior to the replacement with fresh solution.

[3] = system: fibrin clots from recalcified platelet rich plasma (PRP); assay: Red clot lysis under stagnant conditions, PRP clots; type: cell-based, Porcine
Description: as §1, §2

[4] = system: platelet-rich thrombi from heparinized human whole blood; assay: Example 4: thrombolysis of human blood thrombi in 3 mm collagen-coated stenotic capillary tubes; type: cell-based; details: perfusion, human whole blood thrombus
Protocol: In this example, an in-vitro randomized trial was performed using heparinized human blood in collagen-coated glass capillary tubes with a designed stenosis, mimicking arterial disease. Heparinized human blood was then infused through 3 mm capillary tubes at a constant flow rate, during which near-occlusive thrombi were formed at the region of stenosis (FIG. 11). DiNAC was then infused at a constant flow rate through the capillary tubes in order to observe thrombolytic activity, using a combination of live pressure monitoring and microscopic image capture. All infusions were control-matched with a phosphate-buffered saline solution in lieu of DiNAC.

[5] = system: FeCl3 injury-induced thrombus; set-up: dose or concentration left out as unconfirmed; details: after a 60 min treatment; FeCl3 injury in vivo; ADAMTS-13; cited from earlier work
[6] = clinical study; cited from earlier work
[7] = stroke patients, clinical trial; cited from earlier work

Substance: tPA: Recombinant human tissue plasminogen activator, a serine protease converting plasminogen to plasmin
- thrombus surface area reduction [1]: 23±4%
- clot dissolution front speed ([2]; fibrin clots, static conditions, over 48 h): ~3.5 μm/min
- whole blood clot lysis over 48 h ([2]; whole blood clot, 48 h, DiNAC and NAC at 2 mM): large decrease in clot volume
- clot weight reduction from baseline ([2]; whole blood clot, after 6 h): 26%
- PRP clot lysis over 48 h ([3]; 48 h, DiNAC and NAC at 2 mM): large decrease in clot volume
- clot weight reduction from baseline ([3]; after 12 h): 36%
- effect on clots and flow [4]: did not alter the clots or restore flow
- reduction of thrombus size [5]: 53.2%
- recanalization rate [6]: less than 30%
- relative risk reduction versus the placebo [7]: 30%
